From ChEMBL document CHEMBL1136064, “The synthesis and characterization of BMS-204352 (MaxiPost) and related 3-fluorooxindoles as openers of maxi-K potassium channels” (Bioorg Med Chem Lett, 2002)
“And” between values parts separate entries of the source, which are not always exact repeats. Equal entries are not always repeated.

How the values were obtained:
HEK293 [1] = assay: Tested for the effect on whole cell maxi-K current in HEK 293 cells at 100 nM; format: functional, Homo sapiens; set-up: unit not given here
[2] = target: Calcium-activated potassium channel subunit alpha-1 KCNMA1 (Homo sapiens) (UniProt Q12791); assay: Evaluation of maxi-K opening in Xenopus laevis oocytes injected with Hslo1 channels as percent of control current at 20 uM; settings: Oocyte
Chain of Calcium-activated potassium channel subunit alpha-1 KCNMA1 (Homo sapiens) (Q12791 whole entry, looked up): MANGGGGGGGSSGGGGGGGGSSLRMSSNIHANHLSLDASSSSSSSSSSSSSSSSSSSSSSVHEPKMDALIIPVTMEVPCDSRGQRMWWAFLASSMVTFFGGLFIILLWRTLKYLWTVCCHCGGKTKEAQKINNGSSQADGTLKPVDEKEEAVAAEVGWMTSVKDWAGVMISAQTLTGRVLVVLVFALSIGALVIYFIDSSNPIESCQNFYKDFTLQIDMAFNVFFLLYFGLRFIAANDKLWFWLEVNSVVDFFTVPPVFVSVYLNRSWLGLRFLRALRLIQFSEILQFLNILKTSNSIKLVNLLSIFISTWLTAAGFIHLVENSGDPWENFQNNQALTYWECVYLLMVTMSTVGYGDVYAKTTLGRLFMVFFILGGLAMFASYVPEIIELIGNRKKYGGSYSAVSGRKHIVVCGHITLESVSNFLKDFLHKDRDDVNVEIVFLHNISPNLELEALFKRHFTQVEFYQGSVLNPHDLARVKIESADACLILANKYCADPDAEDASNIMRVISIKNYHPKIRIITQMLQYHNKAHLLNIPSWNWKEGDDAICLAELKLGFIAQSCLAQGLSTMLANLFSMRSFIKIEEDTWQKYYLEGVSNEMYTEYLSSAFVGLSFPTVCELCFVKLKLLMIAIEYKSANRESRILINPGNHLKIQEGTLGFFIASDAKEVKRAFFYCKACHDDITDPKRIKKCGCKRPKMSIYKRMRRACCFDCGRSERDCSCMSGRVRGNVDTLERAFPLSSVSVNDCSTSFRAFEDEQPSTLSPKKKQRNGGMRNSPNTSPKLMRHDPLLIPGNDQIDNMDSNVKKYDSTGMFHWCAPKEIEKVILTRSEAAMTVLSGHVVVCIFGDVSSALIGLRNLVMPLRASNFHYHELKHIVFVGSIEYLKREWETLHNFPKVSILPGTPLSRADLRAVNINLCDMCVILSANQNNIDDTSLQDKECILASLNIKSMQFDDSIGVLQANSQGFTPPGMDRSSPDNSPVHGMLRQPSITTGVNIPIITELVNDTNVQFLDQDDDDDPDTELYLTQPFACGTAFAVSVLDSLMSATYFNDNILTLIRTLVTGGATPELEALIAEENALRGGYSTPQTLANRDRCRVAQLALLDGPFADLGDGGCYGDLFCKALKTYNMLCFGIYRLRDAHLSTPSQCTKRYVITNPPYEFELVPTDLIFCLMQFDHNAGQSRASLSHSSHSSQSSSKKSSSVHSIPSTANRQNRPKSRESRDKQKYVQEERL

[3] = target: Calcium-activated potassium channel subunit alpha-1 KCNMA1 (Homo sapiens) (UniProt Q12791); assay: Evaluation of maxi-K opening in Xenopus laevis oocytes injected with Hslo1 channels as percent of control current at a concentration of 20 uM; settings: Oocyte
HEK293 [4] = assay: Tested for the effect on whole cell maxi-K current in HEK 293 cells at 1000 nM; format: functional, Homo sapiens
HEK293 [5] = assay: Tested for the effect on whole cell maxi-K current in HEK 293 cells at 10 nM; format: functional, Homo sapiens
[6] = Evaluated for plasma clearance after iv administration of 5 mg/kg to male Sprague-Dawley rats; format: ADME, organism-based; set-up: dose 5 mg/kg, route intravenous; settings: rat
[7] = Evaluated for half-life after iv administration of 1 mg/kg to male Sprague-Dawley rats in plasma; format: ADME, organism-based; set-up: dose 1 mg/kg, route intravenous; settings: rat
[8] = Evaluated for half-life after iv administration of 5 mg/kg to male Sprague-Dawley rats in plasma; format: ADME, organism-based; set-up: dose 5 mg/kg, route intravenous; settings: rat
[9] = Ratio of brain AUC versus plasma AUC; format: ADME, cell-free; settings: rat
[10] = Evaluated for AUC after iv administration of 5 mg/kg to male Sprague-Dawley rats in brain; format: ADME, organism-based; set-up: dose 5 mg/kg, route intravenous; settings: rat
[11] = Evaluated for Volume of distribution after iv administration of 5 mg/kg to male Sprague-Dawley rats; format: ADME, organism-based; set-up: dose 5 mg/kg, route intravenous; settings: rat, in vivo, read-out: Volume of distribution
[12] = Evaluated for half-life after iv administration of 5 mg/kg to male Sprague-Dawley rats in brain; format: ADME, organism-based; set-up: dose 5 mg/kg, route intravenous; settings: rat
[13] = Evaluated for AUC after iv administration of 5 mg/kg to male Sprague-Dawley rats in plasma; format: ADME, organism-based; set-up: dose 5 mg/kg, route intravenous; settings: rat
[14] = Evaluated for AUC after iv administration of 1 mg/kg to male Sprague-Dawley rats in plasma; format: ADME, organism-based; set-up: dose 1 mg/kg, route intravenous; settings: rat

Q: Which Maxi-K current (HEK293 [1]) does the source give for `COc1ccc(Cl)cc1C1(F)C(=O)Nc2c(C(F)(F)F)cccc21` (stereo not drawn) here?
A: The Maxi-K current was 131.9 and 169.6.

Q: For `O=C1Nc2ccccc2C1(F)c1ccccc1` (stereo not drawn), which remaining activity at 20 µM [2] is on record?
A: The remaining activity at 20 µM was 100%.

Q: For `O=C1Nc2cc(C(F)(F)F)ccc2C1(F)c1ccccc1` (stereo not drawn), which remaining activity at 20 µM [3] is on record?
A: The remaining activity at 20 µM was 107%.

Q: What does the source list for `COc1ccc(Cl)cc1[C@@]1(F)C(=O)Nc2cc(C(F)(F)F)ccc21`?
A: Maxi-K current (HEK293 [4]): 205.3; Maxi-K current (HEK293 [1]): 164.4; Maxi-K current (HEK293 [5]): 105

Q: For `COc1ccc(Cl)cc1[C@]1(F)C(=O)Nc2cc(C(F)(F)F)ccc21` [FLINDOKALNER], which Maxi-K current (HEK293 [4]) is on record?
A: The Maxi-K current was 247.4.

Q: And the clearance [6]?
A: The clearance was 51.5 mL/min/kg.

Q: And the Maxi-K current (HEK293 [1])?
A: The Maxi-K current was 185.3.

Q: What about the half-life [7] of the same molecule?
A: The half-life was 1.8 h.

Q: What about the half-life [8] of the same molecule?
A: Its half-life is 1.9 h.

Q: And the Maxi-K current (HEK293 [5])?
A: The Maxi-K current was 127.8.

Q: And the Kp [9]?
A: Its Kp is 9.6.

Q: What about the AUC [10] of the same molecule?
A: Its AUC is 28800 ng·h/mL.

Q: And the Vd [11]?
A: Its Vd is 5.8 L/kg.

Q: And the half-life [12]?
A: Its half-life is 1.6 h.

Q: And the AUC [13]?
A: Its AUC is 3000 ng·h/mL.

Q: What about the AUC [14] of the same molecule?
A: The AUC was 320 ng·h/mL.
